# Patent publication EP0044212B1, “Herbicidal o-alkylsulfonyloxy- and o-alkylsulfonylamino-benzenesulfonamides” (E.I. DU PONT DE NEMOURS AND COMPANY, priority 1980, dated 1982)
# Tests used:
# Assay in all cases: Test A greenhouse herbicide screen
# Cocklebur = assay type: in vivo, Xanthium spp.; conditions: 16 days
# Source text: (§1) Seeds of crabgrass (Digitaria spp.), barnyardgrass (Echinochloa crusgalli), wild oats (Avena fatua), cassia (Cassia tora), morningglory (Ipomoea sp.), cocklebur (Xanthium spp.), sorghum, corn, soybean, rice, wheat and nutsedge tubers (Cyperus rotundus) were planted in a growth medium and treated preemergence with the chemicals dissolved in a non-phytotoxic solvent solution of the compounds of Table A. At the same time, cotton having five leaves (including cotyledonary ones), bush beans with the third trifoliate leaf expanding, crabgrass and barnyardgrass with two leaves, wild oats with two leaves, cassia with three leaves (including cotyledonary ones), morningglory and cocklebur with four leaves (including the cotyldonary ones), sorghum and corn with four leaves, soybean with two cotyledonary leaves, rice with three leaves, wheat with one leaf, and nutsedge with three-five leaves were sprayed with a non-phytotoxic solvent solution of the compounds of Table A. Other containers of the above mentioned weeds and crops were treated pre- or post-emergence with the same non-phytotoxic solvent so as to provide a solvent control. A set of untreated control plants was also included for comparison. Pre- emergence and post-emergence treated plants and controls were maintained in a greenhouse for sixteen days, then all treated plants were compared with their respective controls and rated visually for response to treatment.
# Barnyardgrass = assay type: in vivo, Echinochloa crusgalli; conditions: 16 days
# Source text: as §1
# Wild Oats = assay type: in vivo, Avena fatua; conditions: 16 days
# Source text: as §1
# Bush Bean = assay type: in vivo, bush beans; conditions: POST-EMERGENCE, 16 days
# Source text: as §1
# Crabgrass = assay type: in vivo, Digitaria spp.; parameters: scale not given here; conditions: 16 days
# Source text: as §1
# Morningglory = assay type: in vivo, Ipomoea sp.; conditions: 16 days
# Source text: as §1
# Rice = assay type: in vivo; parameters: scale not given here; conditions: 16 days
# Source text: as §1
# Soybean = assay type: in vivo; parameters: scale not given here; conditions: 16 days
# Source text: as §1
# Wheat = assay type: in vivo; parameters: scale not given here; conditions: 16 days
# Source text: as §1
# Cassia = assay type: in vivo, Cassia tora; parameters: scale not given here; conditions: 16 days
# Source text: as §1
# Sorghum = assay type: in vivo; conditions: 16 days
# Source text: as §1
# Corn = assay type: in vivo; conditions: 16 days
# Source text: as §1
# Cotton = assay type: in vivo; conditions: POST-EMERGENCE, 16 days
# Source text: as §1
# Nutsedge = assay type: in vivo, Cyperus rotundus; parameters: scale not given here; conditions: 16 days
# Source text: as §1
smiles,measurement,setting,value
COc1nc(C)nc(NC(=O)NS(=O)(=O)c2cc(Cl)cc(Cl)c2OS(C)(=O)=O)n1 [Compound 43],Cocklebur response rating,"Cocklebur; POST-EMERGENCE, 2 kg/ha",0
same,Cocklebur response rating,"Cocklebur; POST-EMERGENCE, 6 kg/ha",0
same,Cocklebur response rating,"Cocklebur; PRE-EMERGENCE, 2 kg/ha",0
same,Barnyardgrass response rating,"Barnyardgrass; POST-EMERGENCE, 2 kg/ha",0
same,Barnyardgrass response rating,"Barnyardgrass; POST-EMERGENCE, 6 kg/ha",1C
same,Barnyardgrass response rating,"Barnyardgrass; PRE-EMERGENCE, 2 kg/ha",0
same,Wild Oats response rating,"Wild Oats; POST-EMERGENCE, 2 kg/ha",0
same,Wild Oats response rating,"Wild Oats; POST-EMERGENCE, 6 kg/ha",0
same,Wild Oats response rating,"Wild Oats; PRE-EMERGENCE, 2 kg/ha",0
same,Bush Bean response rating,Bush Bean; 2 kg/ha,0
same,Bush Bean response rating,Bush Bean; 6 kg/ha,3C
same,Crabgrass response rating,"Crabgrass; POST-EMERGENCE, 2 kg/ha",0
same,Crabgrass response rating,"Crabgrass; POST-EMERGENCE, 6 kg/ha",0
same,Crabgrass response rating,"Crabgrass; PRE-EMERGENCE, 2 kg/ha",0
same,Crabgrass response rating,"Crabgrass; PRE-EMERGENCE, 6 kg/ha",2G
same,Morningglory response rating,"Morningglory; POST-EMERGENCE, 2 kg/ha",0
same,Morningglory response rating,"Morningglory; POST-EMERGENCE, 6 kg/ha",0
same,Morningglory response rating,"Morningglory; PRE-EMERGENCE, 2 kg/ha",0
same,Morningglory response rating,"Morningglory; PRE-EMERGENCE, 6 kg/ha",3C
same,Rice response rating,"Rice; POST-EMERGENCE, 2 kg/ha",0
same,Rice response rating,"Rice; POST-EMERGENCE, 6 kg/ha",0
same,Rice response rating,"Rice; PRE-EMERGENCE, 2 kg/ha",0
same,Rice response rating,"Rice; PRE-EMERGENCE, 6 kg/ha",1C
same,Soybean response rating,"Soybean; POST-EMERGENCE, 2 kg/ha",0
same,Soybean response rating,"Soybean; POST-EMERGENCE, 6 kg/ha",1C
same,Soybean response rating,"Soybean; PRE-EMERGENCE, 2 kg/ha",0
same,Soybean response rating,"Soybean; PRE-EMERGENCE, 6 kg/ha",0
same,Wheat response rating,"Wheat; POST-EMERGENCE, 2 kg/ha",0
same,Wheat response rating,"Wheat; POST-EMERGENCE, 6 kg/ha",0
same,Wheat response rating,"Wheat; PRE-EMERGENCE, 2 kg/ha",0
same,Wheat response rating,"Wheat; PRE-EMERGENCE, 6 kg/ha",0
same,Cassia response rating,"Cassia; POST-EMERGENCE, 2 kg/ha",0
same,Cassia response rating,"Cassia; POST-EMERGENCE, 6 kg/ha",1C
same,Cassia response rating,"Cassia; PRE-EMERGENCE, 2 kg/ha",0
same,Cassia response rating,"Cassia; PRE-EMERGENCE, 6 kg/ha",3G
same,Sorghum response rating,"Sorghum; POST-EMERGENCE, 2 kg/ha",0
same,Sorghum response rating,"Sorghum; POST-EMERGENCE, 6 kg/ha",0
same,Sorghum response rating,"Sorghum; PRE-EMERGENCE, 2 kg/ha",0
same,Corn response rating,"Corn; POST-EMERGENCE, 2 kg/ha",0
same,Corn response rating,"Corn; POST-EMERGENCE, 6 kg/ha",0
same,Corn response rating,"Corn; PRE-EMERGENCE, 2 kg/ha",0
same,Cotton response rating,Cotton; 2 kg/ha,0
same,Cotton response rating,Cotton; 6 kg/ha,3C
same,Nutsedge response rating,"Nutsedge; POST-EMERGENCE, 2 kg/ha",0
same,Nutsedge response rating,"Nutsedge; POST-EMERGENCE, 6 kg/ha",0
same,Nutsedge response rating,"Nutsedge; PRE-EMERGENCE, 2 kg/ha",0
same,Nutsedge response rating,"Nutsedge; PRE-EMERGENCE, 6 kg/ha",0
COc1nc(NC(=O)NS(=O)(=O)c2cc(Cl)cc(Cl)c2OS(C)(=O)=O)nc(OC)n1 [Compound 44],Cocklebur response rating,"Cocklebur; POST-EMERGENCE, 2 kg/ha",0
same,Cocklebur response rating,"Cocklebur; POST-EMERGENCE, 6 kg/ha",0
same,Cocklebur response rating,"Cocklebur; PRE-EMERGENCE, 2 kg/ha",0
same,Cocklebur response rating,"Cocklebur; PRE-EMERGENCE, 6 kg/ha",5H
same,Barnyardgrass response rating,"Barnyardgrass; POST-EMERGENCE, 2 kg/ha",0
same,Barnyardgrass response rating,"Barnyardgrass; POST-EMERGENCE, 6 kg/ha",0
same,Barnyardgrass response rating,"Barnyardgrass; PRE-EMERGENCE, 2 kg/ha",0
same,Barnyardgrass response rating,"Barnyardgrass; PRE-EMERGENCE, 6 kg/ha",5C
same,Wild Oats response rating,"Wild Oats; POST-EMERGENCE, 2 kg/ha",0
same,Wild Oats response rating,"Wild Oats; POST-EMERGENCE, 6 kg/ha",0
same,Wild Oats response rating,"Wild Oats; PRE-EMERGENCE, 2 kg/ha",0
same,Wild Oats response rating,"Wild Oats; PRE-EMERGENCE, 6 kg/ha",0
same,Bush Bean response rating,Bush Bean; 2 kg/ha,0
same,Bush Bean response rating,Bush Bean; 6 kg/ha,0
same,Crabgrass response rating,"Crabgrass; POST-EMERGENCE, 2 kg/ha",0
same,Crabgrass response rating,"Crabgrass; POST-EMERGENCE, 6 kg/ha",0
same,Crabgrass response rating,"Crabgrass; PRE-EMERGENCE, 2 kg/ha",0
same,Crabgrass response rating,"Crabgrass; PRE-EMERGENCE, 6 kg/ha",0
same,Morningglory response rating,"Morningglory; POST-EMERGENCE, 2 kg/ha",0
same,Morningglory response rating,"Morningglory; PRE-EMERGENCE, 2 kg/ha",0
same,Morningglory response rating,"Morningglory; PRE-EMERGENCE, 6 kg/ha",2C
same,Rice response rating,"Rice; POST-EMERGENCE, 2 kg/ha",0
same,Rice response rating,"Rice; POST-EMERGENCE, 6 kg/ha",0
same,Rice response rating,"Rice; PRE-EMERGENCE, 2 kg/ha",0
same,Rice response rating,"Rice; PRE-EMERGENCE, 6 kg/ha",1C
same,Soybean response rating,"Soybean; POST-EMERGENCE, 2 kg/ha",0
same,Soybean response rating,"Soybean; POST-EMERGENCE, 6 kg/ha",3G
same,Soybean response rating,"Soybean; PRE-EMERGENCE, 2 kg/ha",0
same,Soybean response rating,"Soybean; PRE-EMERGENCE, 6 kg/ha",0
same,Wheat response rating,"Wheat; POST-EMERGENCE, 2 kg/ha",0
same,Wheat response rating,"Wheat; POST-EMERGENCE, 6 kg/ha",0
same,Wheat response rating,"Wheat; PRE-EMERGENCE, 2 kg/ha",0
same,Wheat response rating,"Wheat; PRE-EMERGENCE, 6 kg/ha",0
same,Cassia response rating,"Cassia; POST-EMERGENCE, 2 kg/ha",0
same,Cassia response rating,"Cassia; POST-EMERGENCE, 6 kg/ha",0
same,Cassia response rating,"Cassia; PRE-EMERGENCE, 2 kg/ha",0
same,Cassia response rating,"Cassia; PRE-EMERGENCE, 6 kg/ha",5G
same,Sorghum response rating,"Sorghum; POST-EMERGENCE, 2 kg/ha",0
same,Sorghum response rating,"Sorghum; POST-EMERGENCE, 6 kg/ha",2C
same,Sorghum response rating,"Sorghum; PRE-EMERGENCE, 2 kg/ha",0
same,Sorghum response rating,"Sorghum; PRE-EMERGENCE, 6 kg/ha",2C
same,Corn response rating,"Corn; POST-EMERGENCE, 2 kg/ha",0
same,Corn response rating,"Corn; POST-EMERGENCE, 6 kg/ha",0
same,Corn response rating,"Corn; PRE-EMERGENCE, 2 kg/ha",0
same,Cotton response rating,Cotton; 2 kg/ha,0
same,Cotton response rating,Cotton; 6 kg/ha,2C
same,Nutsedge response rating,"Nutsedge; POST-EMERGENCE, 2 kg/ha",0
same,Nutsedge response rating,"Nutsedge; POST-EMERGENCE, 6 kg/ha",0
same,Nutsedge response rating,"Nutsedge; PRE-EMERGENCE, 2 kg/ha",0
same,Nutsedge response rating,"Nutsedge; PRE-EMERGENCE, 6 kg/ha",0
